# Experimental data: patent US11498899B2, “Nitrone herbicides” (FMC Corporation, priority 2016, dated 2022)
# Key:
# [1] = test system: pigweed (Amaranthus retroflexus); assay: Test A preemergence, visual injury rating 0-100; type: in vivo
# kochia (Kochia scoparia) [2] = assay: Test A preemergence, visual injury rating 0-100; type: in vivo
# [3] = test system: foxtail, giant (giant foxtail, Setaria faberii); assay: Test A preemergence, visual injury rating 0-100; type: in vivo
# [4] = test system: ragweed (common ragweed, Ambrosia elatior); assay: Test A preemergence, visual injury rating 0-100; type: in vivo
# [5] = test system: ryegrass, Italian (Italian ryegrass, Lolium multiflorum); assay: Test A preemergence, visual injury rating 0-100; type: in vivo; conditions: 500 g ai/ha
# rice (Oryza sativa) = assay: Test B flooded paddy test, visual rating 0-100 (0 no effect, 100 complete control); conditions: Flood, 250 g ai/ha, applied to paddy water, rated after 13 to 15 days
# [6] = test system: barnyardgrass (Echinochloa crus-galli); assay: Test B flooded paddy test, visual rating 0-100; conditions: Flood, 250 g ai/ha, applied to paddy water, rated after 13 to 15 days
# [7] = test system: ducksalad (Heteranthera limosa); assay: Test B flooded paddy test, visual rating 0-100; conditions: Flood, 250 g ai/ha, applied to paddy water, rated after 13 to 15 days
# [8] = test system: barnyardgrass (Echinochloa crus-galli); assay: Test A preemergence, visual injury rating 0-100 (0 no effect, 100 complete control); type: in vivo
# [9] = test system: pigweed (Amaranthus retroflexus); assay: Test A postemergence, visual injury rating 0-100; type: in vivo; conditions: 0 to 100 scale
# [10] = test system: barnyardgrass (Echinochloa crus-galli); assay: Test A postemergence, visual injury rating 0-100; type: in vivo; conditions: 0 to 100 scale
# kochia (Kochia scoparia) [11] = assay: Test A postemergence, visual injury rating 0-100; type: in vivo; conditions: 0 to 100 scale
# [12] = test system: wheat (Triticum aestivum); assay: Test A postemergence, visual injury rating 0-100; type: in vivo; conditions: 0 to 100 scale
# [13] = test system: galium (catchweed bedstraw, Galium aparine); assay: Test A postemergence, visual injury rating 0-100; type: in vivo; conditions: 0 to 100 scale
# corn (Zea mays) = assay: Test A postemergence, visual injury rating 0-100; type: in vivo; conditions: 0 to 100 scale
# [14] = test system: foxtail, giant (giant foxtail, Setaria faberii); assay: Test A postemergence, visual injury rating 0-100; type: in vivo; conditions: 0 to 100 scale
# [15] = test system: ragweed (common ragweed, Ambrosia elatior); assay: Test A postemergence, visual injury rating 0-100; type: in vivo; conditions: 0 to 100 scale
# [16] = test system: ryegrass, Italian (Italian ryegrass, Lolium multiflorum); assay: Test A postemergence, visual injury rating 0-100; type: in vivo; conditions: 0 to 100 scale
# [17] = test system: blackgrass (Alopecurus myosuroides); assay: Test A postemergence, visual injury rating 0-100; type: in vivo; conditions: 0 to 100 scale
SMILES,Pigweed plant response rating (0 to 100 scale) ([1]; 125 g ai/ha),Pigweed plant response rating (0 to 100 scale) ([1]; 500 g ai/ha),Kochia plant response rating (0 to 100 scale) (kochia (Kochia scoparia) [2]; 125 g ai/ha),Kochia plant response rating (0 to 100 scale) (kochia (Kochia scoparia) [2]; 500 g ai/ha),"Foxtail, Giant plant response rating (0 to 100 scale) ([3]; 125 g ai/ha)","Foxtail, Giant plant response rating (0 to 100 scale) ([3]; 500 g ai/ha)",Ragweed plant response rating (0 to 100 scale) ([4]; 125 g ai/ha),Ragweed plant response rating (0 to 100 scale) ([4]; 500 g ai/ha),"Ryegrass, Italian plant response rating (0 to 100 scale) [5]",Rice plant response rating (0 to 100 scale) (rice (Oryza sativa)),Barnyardgrass plant response rating (0 to 100 scale) [6],Ducksalad plant response rating (0 to 100 scale) [7],Barnyardgrass plant response rating (0 to 100 scale) ([8]; 125 g ai/ha),Barnyardgrass plant response rating (0 to 100 scale) ([8]; 500 g ai/ha),Pigweed plant response rating ([9]; 125 g ai/ha),Pigweed plant response rating ([9]; 500 g ai/ha),Barnyardgrass plant response rating ([10]; 125 g ai/ha),Barnyardgrass plant response rating ([10]; 500 g ai/ha),Kochia plant response rating (kochia (Kochia scoparia) [11]; 125 g ai/ha),Kochia plant response rating (kochia (Kochia scoparia) [11]; 500 g ai/ha),further results
CC1=[N+]([O-])C(C(=O)Nc2cccc(F)c2F)C(c2cc(C)cc(CF)c2)C1 (racemic) [Compound 108],0,70,20,90,90,100,0,70,90,0,0,0,90,100,0,20,70,80,0,20,"Wheat plant response rating ([12]; 125 g ai/ha): 30; Wheat plant response rating ([12]; 500 g ai/ha): 70; Galium plant response rating ([13]; 125 g ai/ha): 50; Galium plant response rating ([13]; 500 g ai/ha): 70; Corn plant response rating (corn (Zea mays); 125 g ai/ha): 60; Corn plant response rating (corn (Zea mays); 500 g ai/ha): 90; Foxtail, Giant plant response rating ([14]; 125 g ai/ha): 70; Foxtail, Giant plant response rating ([14]; 500 g ai/ha): 90; Ragweed plant response rating ([15]; 125 g ai/ha): 30; Ragweed plant response rating ([15]; 500 g ai/ha): 50; Ryegrass, Italian plant response rating ([16]; 125 g ai/ha): 40; Ryegrass, Italian plant response rating ([16]; 500 g ai/ha): 70; Blackgrass plant response rating ([17]; 125 g ai/ha): 90; Blackgrass plant response rating ([17]; 500 g ai/ha): 90"
CCc1cc(CC)cc(C2CC(C)=[N+]([O-])C2C(=O)Nc2cccc(F)c2F)c1 (racemic) [Compound 109],0,0,0,50,90,90,0,30,100,0,0,0,90,100,0,0,50,80,0,0,"Wheat plant response rating ([12]; 125 g ai/ha): 20; Wheat plant response rating ([12]; 500 g ai/ha): 80; Galium plant response rating ([13]; 125 g ai/ha): 20; Galium plant response rating ([13]; 500 g ai/ha): 20; Corn plant response rating (corn (Zea mays); 125 g ai/ha): 80; Corn plant response rating (corn (Zea mays); 500 g ai/ha): 90; Foxtail, Giant plant response rating ([14]; 125 g ai/ha): 80; Foxtail, Giant plant response rating ([14]; 500 g ai/ha): 90; Ragweed plant response rating ([15]; 125 g ai/ha): 0; Ragweed plant response rating ([15]; 500 g ai/ha): 0; Ryegrass, Italian plant response rating ([16]; 125 g ai/ha): 70; Ryegrass, Italian plant response rating ([16]; 500 g ai/ha): 80; Blackgrass plant response rating ([17]; 125 g ai/ha): 80; Blackgrass plant response rating ([17]; 500 g ai/ha): 90"
CC1=[N+]([O-])C(C(=O)Nc2cccc(F)c2F)C(c2cc(C(F)(F)F)cc(C(F)(F)F)c2)C1 (racemic) [Compound 110],0,60,0,20,90,90,50,80,90,0,0,0,90,90,0,20,40,90,0,50,"Wheat plant response rating ([12]; 125 g ai/ha): 50; Wheat plant response rating ([12]; 500 g ai/ha): 80; Galium plant response rating ([13]; 125 g ai/ha): 50; Galium plant response rating ([13]; 500 g ai/ha): 70; Corn plant response rating (corn (Zea mays); 125 g ai/ha): 80; Corn plant response rating (corn (Zea mays); 500 g ai/ha): 90; Foxtail, Giant plant response rating ([14]; 125 g ai/ha): 80; Foxtail, Giant plant response rating ([14]; 500 g ai/ha): 90; Ragweed plant response rating ([15]; 125 g ai/ha): 0; Ragweed plant response rating ([15]; 500 g ai/ha): 70; Ryegrass, Italian plant response rating ([16]; 125 g ai/ha): 70; Ryegrass, Italian plant response rating ([16]; 500 g ai/ha): 80; Blackgrass plant response rating ([17]; 125 g ai/ha): 80; Blackgrass plant response rating ([17]; 500 g ai/ha): 90"
